Experimental data reported in patent US20190160037A1, “METHOD OF TREATING, REDUCING, PREVENTING DETERIORATION OR IMPROVING VISUAL FUNCTION AFTER OPTIC NEUROPATHY” (TZU CHI UNIVERSITY, priority 2017, published 2019).

Key:
[1] = test system: rat model subject to ON crush; assay: Flash visual-evoked potentials (FVEPs) after ON crush; type: in vivo, Wistar rats; settings: 2 weeks after ON crush; 15 mg/Kg once by subcutaneous injection; n=6
Description: (§1) An ON crush injury was induced as described in the previous report. (Chien J Y, Sheu J H, Wen Z H, Tsai R K, Huang S P. Neuroprotective effect of 4-(Phenylsulfanyl)butan-2-one on optic nerve crush model in rats. Experimental eye research. 2016; 143:148-57. Epub 2015/10/17). Briefly, rats were general anesthetized and eye were further anesthetized with topical 0.5% Alcaine eye drops. The conjunctiva was cut with Vannas scissors to expose the optic nerve. Care was taken to avoid damaging the small vessels around the ON. Injury was introduced by crushing the ON 2 mm posterior to the globe with a vascular clip (60 g micro-vascular clip, World Precision Instruments, FL, USA) for 30 seconds. After the surgery, Tobradex eye ointment (Alcon, Puurs, Belgium) was administered. The rats were kept under supervision and on electric heating pads at 37° C. for recovery. A sham operation was performed by exposing the ON in the same way but not crushed. Oroxyiln A (15 mg/Kg in 0.2 ml phosphate-buffered saline) or phosphate-buffered saline (PBS control) was immediately administered after ON crush once by subcutaneous injection.
For the functional evaluation of the ON, FVEPs were recorded 2 weeks after ON crush in 18 experimental rats. The groups in assessing FVEP were masked. […]

[2] = test system: apoptotic cells in the RGC layer; assay: TUNEL assay in the RGC layer of the retina after ON crush; type: in vivo, Wistar rats; settings: 15 mg/Kg once by subcutaneous injection, n=6
Description: as §1, with “Oroxyiln A (15 mg/Kg in 0.2 ml phosphate-buffered saline) or phosphate-buffered saline (PBS control) was immediately administered after ON crush once by subcutaneous injection.” left out
To ensure the use of equivalent fields for comparison, all retinal frozen sections were prepared with retinas at 1-2 mm distance from the ONH. […] The TUNEL positive cells in the RGC layer of each sample were counted in ten high powered fields (HPF, ×400 magnification), and three sections per eye were averaged. […]

RGCs = assay: Retrograde Fluorogold labeling of RGCs, RGC density after ON crush; type: in vivo, Wistar rats
Description: as §1
Retrograde labeling of RGCs with Fluorogold (FG) and densities of RGCs. The detailed procedures have been described in the previous reports. (Chien J Y, Sheu J H, Wen Z H, Tsai R K, Huang S P. Neuroprotective effect of 4-(Phenylsulfanyl)butan-2-one on optic nerve crush model in rats. Experimental eye research. 2016; 143:148-57. Epub 2015/10/17; Tsai R K, Chang C H, Wang H Z. Neuroprotective effects of recombinant human granulocyte colony-stimulating factor (G-CSF) in neurodegeneration after optic nerve crush in rats. Experimental eye research. 2008; 87(3):242-50. Epub 2008/07/08). Briefly, retrograde labeling of RGCs with FG was performed one week before sacrificing to avoid overcounting RGCs by mixing labeled RGCs with dye-engulfed macrophages and microglia. (Huang T L, Huang S P, Chang C H, Lin K H, Sheu M M, Tsai R K. Factors influencing the retrograde labeling of retinal ganglion cells with fluorogold in an animal optic nerve crush model. Ophthalmic research. 2014; 51(4):173-8. Epub 2014/03/26). The rats were anesthetized using a ketamine (100 mg/kg) and xylazine (10 mg/kg) mixture, and then placed in a stereotactic apparatus (Stoelting, Wood Dale, Ill., USA). […] One week after labeling, the eyeballs were harvested after euthanasia of the animals. The eyeballs were placed in 10% formalin and the whole retina was then carefully dissected, flattened. The retina was examined with a 400 epi-fluorescence microscope (Axioskop; Carl Zeiss Meditec. Inc., Jena, Germany) equipped with a filter set (excitation filter: 350-400 nm; barrier filter: 515 nm), as well as a digital camera (Axiocam MRm) and software (Axiovision 4.0). The retinas were examined for RGCs at a distance of 1 or 3 mm ([…] from the center to provide the central and mid-peripheral RGC densities respectively. Eight randomly chosen areas (38250 μm2; […]) in the central (about 40% of the central area) and mid-peripheral (about 30% of the mid-periphery) regions of each retina (n=6 per group) were counted. The averages of these areas were taken as the mean density of RGCs per retina. RGC survival percentage was defined as the number of RGCs in each treatment group divided by the number of RGCs in the sham-operated retina, multiplied by 100.

GFAP = GFAP IHC and immunoblot in the retina after ON crush; type: in vivo, Wistar rats; settings: 2 weeks after ON crush, vs ON-crushed, PBS-treated group, p<0.05
Description: An ON crush injury was induced as described in the previous report. (Chien J Y, Sheu J H, Wen Z H, Tsai R K, Huang S P. Neuroprotective effect of 4-(Phenylsulfanyl)butan-2-one on optic nerve crush model in rats. Experimental eye research. 2016; 143:148-57. Epub 2015/10/17). Briefly, rats were general anesthetized and eye were further anesthetized with topical 0.5% Alcaine eye drops. The conjunctiva was cut with Vannas scissors to expose the optic nerve. Care was taken to avoid damaging the small vessels around the ON. Injury was introduced by crushing the ON 2 mm posterior to the globe with a vascular clip (60 g micro-vascular clip, World Precision Instruments, FL, USA) for 30 seconds. […]
(§2) IHC of ED1 (CD68, a marker of macrophage/microglia) in the ONs and IHC of GFAP in the retina using monoclonal antibody (ED1, 1:50; AbD Serotec, Oxford, UK) or polyclonal antibody (GFAP, 1:200; Cambridge, Mass., USA) was performed. […] For comparison, ED1 positive cells were counted in six HPF at the lesion site of ON (n=6 in each group).
(§3) Total retinal protein extracts from rat retina were prepared using modified radioimmunoprecipitation (RIPA) buffer. The protein concentrations were determined using the BCA (bicinchoninic acid) protein assay kit (Pierce). […] The proteins on the membranes were detected using an enhanced chemiluminescence (ECL) system (Amersham Biosciences). […]

[3] = test system: ED1 (CD68, a marker of macrophage/microglia); assay: IHC of ED1 in the ONs after ON crush; type: in vivo, Wistar rats; settings: 2 weeks after ON crush; 15 mg/Kg once by subcutaneous injection; n=6
Description: as §1, with “Oroxyiln A (15 mg/Kg in 0.2 ml phosphate-buffered saline) or phosphate-buffered saline (PBS control) was immediately administered after ON crush once by subcutaneous injection.” left out
as §2

COX-2 = COX-2 immunoblot in the retina after ON crush; type: in vivo, Wistar rats; settings: two weeks after ON crush, ratio to GAPDH, vs PBS-treated
Description: as §1, with “Oroxyiln A (15 mg/Kg in 0.2 ml phosphate-buffered saline) or phosphate-buffered saline (PBS control) was immediately administered after ON crush once by subcutaneous injection.” left out
as §3

RAW264.7 macrophages = settings: through inhibiting the activation of NFκB-p65; cited from earlier work
iNOS = iNOS immunoblot in the retina after ON crush; type: in vivo, Wistar rats; settings: two weeks after ON crush, ratio to GAPDH, vs PBS-treated
Description: as §1, with “Oroxyiln A (15 mg/Kg in 0.2 ml phosphate-buffered saline) or phosphate-buffered saline (PBS control) was immediately administered after ON crush once by subcutaneous injection.” left out
as §3

microglia = settings: cited from earlier work
Brn-3a+ cells (RGCs) = assay: Brn3a-labeled flat-mounted retinas after ON crush; type: in vivo, Wistar rats; settings: for densities of Brn-3a+ cells in mid-peripheral retina / densities of Brn-3a+ cells in the central retina: after ON crush, 15 mg/Kg once by subcutaneous injection, 15 mg/kg
Description: as §1
Animals were euthanized and eyes were enucleated and fixed in 10% formalin for 1 hour. Retina flat mounts were subjected to immunofluorescent staining for Brn-3a as previously described. (Tual-Chalot S, Allinson K R, Fruttiger M, Arthur H M. Whole Mount Immunofluorescent Staining of the Neonatal Mouse Retina to Investigate Angiogenesis In vivo. 2013; (77):e50546). In brief, flat mounts were washed with PBS and blocked with blocking buffer (PBS with 0.3% Triton-X and 5% Fetal Bovine Serum) for 1 hour. Flat mounts were then incubated with primary monoclonal antibody Brn-3a (1:200; Santa Cruz, Calif., USA) for 24 hours, washed with PBS and treated with secondary antibody Alexa flour 488 (1:400; Life Technologies, OR, USA) and incubated overnight. 8 to 10 microphotographs were captured for every retina flat mount covering central and mid peripheral region.

[4] = test system: hippocampal dentate gyrus region; settings: in vivo studies; cited from earlier work
[5] = compared to the PBS-treated group
[6] = relative to sham-operated retina, two weeks after ON crush
[7] = two weeks after ON crush, 15 mg/Kg once by subcutaneous injection, n=6

## COc1c(O)cc2oc(-c3ccccc3)cc(=O)c2c1O [oroxylin A, 5,7-dihydroxy-6-methoxyflavone]
[1]
  latency of the P1 wave in FVEP: 100 ± 12 ms
[2]
  TUNEL positive cells in the RGC layer: 4.0±2.4 positive cells/HPG
RGCs; [5]
  RGC survival rate increase vs PBS-treated group, central retina (FG labeling): approximately 32.7%
  RGC survival rate increase vs PBS-treated group, mid-peripheral retina (FG labeling): ~33.6%
RGCs; [6]
  RGC survival, central retina (FG labeling): 52.5 % survival
  RGC survival, mid-peripheral retina (FG labeling): 61.9 % survival
RGCs; [7]
  densities of RGCs in mid-peripheral retina (FG labeling): 960±465 /mm^2
  densities of RGCs in the central retina (FG labeling): 1352±476 /mm^2
GFAP
  GFAP level in the retina (retinal gliosis): significantly reduced
GFAP; listed as Oroxylin A
  GFAP level in the retina (retinal gliosis): attenuated retinal gliosis
[3]
  ED1 positive cells at the ON lesion site: 33.5±16.3 cells/HPF
COX-2
  expression level of COX-2 in the retina: reducing the expression level
COX-2; listed as Oroxylin A
  expression level of COX-2 in the retina: suppressed the increase
RAW264.7 macrophages
  LPS-induced iNOS and cyclooxygenase-2 expression: suppresses
iNOS
  expression level of iNOS in the retina: reducing the expression level
iNOS; listed as Oroxylin A
  expression level of iNOS in the retina: suppressed the increase
microglia
  LPS-induced NO production: strong inhibitory activities
Brn-3a+ cells (RGCs)
  densities of Brn-3a+ cells in mid-peripheral retina: 801±199 /mm^2
  densities of Brn-3a+ cells in the central retina: 847±367 /mm^2
Brn-3a+ cells (RGCs); listed as oroxylin-A
  densities of Brn-3a+ cells in mid-peripheral retina: 800±199 /mm^2
  densities of Brn-3a+ cells in the central retina: 894±367 /mm^2
Brn-3a+ cells (RGCs); [5]
  RGC survival rate increase vs PBS-treated group, central retina (Brn-3a): approximately 30.4%
  RGC survival rate increase vs PBS-treated group, mid-peripheral retina (Brn-3a): ~29.7%
Brn-3a+ cells (RGCs); relative to sham-operated eyes
  RGC survival, central retina (Brn-3a): 64.9 % survival
  RGC survival, mid-peripheral retina (Brn-3a): 73 % survival
[4]
  adult neurogenesis in the hippocampal dentate gyrus region: stimulated
  amyloid (Aβ)-induced memory impairment: ameliorated
  cerebral hypoperfusion-induced neuronal damage: prevented
